What was measured:
[1] = tested on: MIA-osteoarthritis induced mechanical punctate allodynia in male SD rats; assay: MIA-induced mechanical punctate allodynia (dynamic von Frey); format: in vivo, rat (Sprague-Dawley); conditions: Compound III 0.132 mg/kg p.o. alone; 0.5-4 h post-dose; Example 19, Table 22, FIG. 25
Method: MIA was dissolved in 0.9% sterile saline and administered using a 26½ gauge needle. Contralateral knees were injected intra-articularly with 50 μl of 0.9% sterile saline. On the day of the experiment (20 h after MIA injection), rats were evaluated for pre-dose mechanical punctate allodynia to assess the effect of MIA. After regrouping the rats after randomization, the pre- & post-dose mechanical allodynia was assessed for both hind paws. […] The % reversal of punctate allodynia was calculated as per standard procedure. Animals were weighed and grouped as described in Table 22.

[2] = tested on: FCA-induced thermal hyperalgesia in male SD rats; assay: FCA-induced thermal hyperalgesia (Hargreaves apparatus); format: in vivo, rat (Sprague-Dawley); conditions: Compound III 0.039 mg/kg p.o. alone; 0.5-4 h post-dose; Example 16, Table 19, FIG. 22
Method: The % reversal of mechanical/thermal hyperalgesia was calculated.

[3] = tested on: Streptozotocin (STZ)-induced diabetic peripheral neuropathic hyperalgesia in male SD rats; assay: Streptozotocin-induced diabetic peripheral neuropathic hyperalgesia; format: in vivo, rat (Sprague-Dawley); conditions: Compound III 0.04 mg/kg p.o. alone; 0.5-4 h post-dose; Example 18, Table 21, FIG. 24
Method: (§1) Streptozotocin (STZ)-induced neuropathic hyperalgesia in rats is a model to screen potential therapeutics for diabetic painful neuropathy in human patients. Streptozotocin was dissolved in freshly prepared cold citrate buffer (0.1 M, pH—4.4). Diabetes was induced in overnight fasted male SD rats (weighing 250-300 g) by a single intraperitoneal injection of Streptozotocin (Sigma, 55 mg/kg, i.p). […] On the day of the experiment (13th day after STZ injection) rats were assessed for mechanical hyperalgesia using Randall-Sellito paw pressure analgesymeter. Animals were weighed and grouped as described in Table 9.
Rats were orally dosed with vehicle, duloxetine hydrochloride, Compound I potassium salt and combination (Duloxetine+Compound I).
as §1, with “pH —4.4).” for “pH—4.4).”, “Sprague Dawley” for “SD”, “rats” for “rats (weighing 250-300 g)”, “analgesymeter.” for “analgesymeter. Animals were weighed and grouped as described in Table 9.”
Rats were orally dosed with vehicle, different doses of duloxetine hydrochloride, Compound II disodium salt and combinations (duloxetine+Compound II—simultaneously). The post-dose paw withdrawal thresholds were measured at 1, 2 & 4 h after oral administration. […] Animals were weighed and grouped as described in Table 16.
Rats were orally dosed with vehicle, different doses of duloxetine hydrochloride, Compound III disodium salt and combinations (duloxetine+Compound III—simultaneously). […] Animals were weighed and grouped as described in Table 21.

[4] = tested on: Freund's Complete Adjuvant (FCA)-induced inflammatory mechanical hyperalgesia in male SD rats; assay: FCA-induced inflammatory mechanical hyperalgesia (Randall-Sellitto paw pressure);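 also: left hind paw withdrawal threshold (g) to rising pressure on an analgesymeter, FCA injected intraplantar 24 h earlier, thresholds taken before and 0.5, 1, 2 and 4 h after oral dosing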; conditions: Compound III 0.039 mg/kg p.o. alone
Method: Materials: FCA containing 1 mg/ml of heat killed and dried Mycobacterium tuberculosis (H37RA strain) emulsified in mineral oil and mannide mono-oleate; Male SD rats weighing 170-220 g; Paw Pressure Analgesymeter (37215, Ugo Basile, Comerio, Italy); Compound I potassium; and Diclofenac sodium
Naïve withdrawal thresholds of the left hind paw to an increasing pressure (g) stimulus were measured in rats using the analgesymeter. FCA was injected (30 μl) into the plantar region of left paw of rats to induce the inflammatory hyperalgesia. Mechanical hyperalgesia (24 h after FCA injection) was assessed by measuring hind paw withdrawal thresholds.
The post-dose paw withdrawal thresholds were measured at 0.5, 1, 2 & 4 h after oral administration. The percentage (%) reversal of mechanical hyperalgesia was calculated as per standard procedure.
Naïve withdrawal thresholds of the left hind paw to an increasing pressure (g) stimulus were measured in rats using the analgesymeter. Freund's Complete Adjuvant (FCA) was injected (30 μl) into the plantar region of left paw of rats to induce the inflammatory hyperalgesia. Mechanical hyperalgesia (24 h after FCA injection) was assessed both pre- & post-dosing of drugs by measuring hind paw withdrawal thresholds. […] The post-dose paw withdrawal thresholds were measured at 0.5, 1, 2 & 4 h after oral administration. The % reversal of mechanical hyperalgesia was calculated.
Naïve withdrawal thresholds of the left hind paw to an increasing pressure (g) stimulus were measured in rats using the analgesymeter.

Cn1c(=O)c2c(CC(=O)N=c3scc(-c4ccc(C(F)(F)F)c(F)c4F)n3COP(=O)(O)O)nsc2n(C)c1=O [Compound III, [4-[2,3-difluoro-4-(trifluoromethyl)phenyl]-2-{[(5,7-dimethyl-4,6-dioxo-4,5,6,7-tetrahydro[1,2]thiazolo[5,4-d]pyrimidin-3-yl)acetyl]imino}-1,3-thiazol-3(2H)-yl]methyl dihydrogen phosphate]
maximal % reversal of mechanical punctate allodynia [1]: 19%
maximal % reversal of thermal hyperalgesia [2]: 22%
maximal % reversal of hyperalgesia [3]: 19%
maximal % reversal of mechanical hyperalgesia ([4]; Example 16, Table 19, FIG. 21): 17%
maximal % reversal of mechanical hyperalgesia ([4]; Example 17, Table 20, FIG. 23): 17%

Reference: patent US9532988B2, “Pharmaceutical composition comprising a TRPA1 antagonist and an analgesic agent” (GLENMARK PHARMACEUTICALS S.A., priority 2013, dated 2017)
